Assay results reported in the supplement of paper PMC11208160.

Experiment: recombinant UMI read abundance after kanamycin selection (control-corrected) (log10(CPM+1)); higher = more efficient recombination; extreme values may be limits of the assay; sequences stand for … in AGTGCAGAGAAAATCGGCCAGTTTTCTCTGCCTGCAGTCCGCATGCCGTGGGACCCCTTGGGTTCTAACCTGTTGCCTAGATTTATGCAGCGGACTGCCTTTCTCCCAAAGTGATAAACCGG…AGGTTGGTTTCACT; site = the 11-nt donor
Description: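 Pooled E. coli donor-specificity screen for the IS621 bridge recombinase. Each library member carries a reprogrammed 11-nt donor and a full-length LE bridge RNA expressed in cis from the natural promoter, with a paired donor-binding loop (8-nt LDG + 4-nt RDG) and a target-binding loop fixed to T5. It is co-electroporated with a T5 target plasmid; recombinase is induced with 0.07 mM IPTG and recombinants are selected on kanamycin. UMIs are counted as CPM, averaged over two biological replicates and corrected by the unselected control. Molecule = full bridge RNA written as DNA, built from the T5 scaffold: LDG = donor specificity nt 1-8, RDG = reverse complement of nt 8-11.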
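Further: IS621 bridge recombinase in Escherichia coli cells against a fixed T5 target plasmid.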

| Sequence | recombinant UMI read abundance (log10) |
| --- | --- |
| ACAGTATCATGGACCGGTTTTCCCGGTAATCCGTATTTGCA (site AGATTATCTTG) | 1.58 |
| ACAGTATCATGGACCGGTTTTCCCGGTAATCCGTATTTGCA (site AGTGTATCTTG) | 1.45 |
| ACAGTATCATGGACCGGTTTTCCCGGTAATCCGTATTTGCA (site ATACTATCTTG) | 1.12 |
| ACAGTATCATGGACCGGTTTTCCCGGTAATCCGTATTTGCA (site ATAGCATCTTG) | 1.83 |
| ACAGTATCATGGACCGGTTTTCCCGGTAATCCGTATTTGCA (site ATAGTAGCTTG) | 0.354 |
| ACAGTATCATGGACCGGTTTTCCCGGTAATCCGTATTTGCA (site ATAGTATCTCG) | 0.0911 |
| ACAGTATCATGGACCGGTTTTCCCGGTAATCCGTATTTGCA (site ATAGTATCTTA) | 0 |
| ACAGTATCATGGACCGGTTTTCCCGGTAATCCGTATTTGCA (site ATAGTATCTTG) | 2.04 |
| ACAGTATCATGGACCGGTTTTCCCGGTAATCCGTATTTGCA (site ATAGTTTCTTG) | 0.0207 |
| ACAGTATCATGGACCGGTTTTCCCGGTAATCCGTATTTGCA (site ATGGTATCTTG) | 1.7 |
| ACAGTATCATGGACCGGTTTTCCCGGTAATCCGTATTTGCA (site CCAGGATCTTG) | 0.811 |
| ACAGTATCATGGACCGGTTTTCCCGGTAATCCGTATTTGCA (site CCAGTACCTTG) | 0.0123 |
| ACAGTATCATGGACCGGTTTTCCCGGTAATCCGTATTTGCA (site CCAGTATCTGG) | 0.613 |
| ACAGTATCATGGACCGGTTTTCCCGGTAATCCGTATTTGCA (site CCAGTATCTTG) | 2.71 |
| ACAGTATCATGGACCGGTTTTCCCGGTAATCCGTATTTGCA (site CCAGTATCTTT) | 0.00394 |
| ACAGTATCATGGACCGGTTTTCCCGGTAATCCGTATTTGCA (site CCAGTGTCTTG) | 1.8 |

| Sequence | recombinant UMI read abundance (log10) |
| --- | --- |
| ACAGTATCATGGACCGGTTTTCCCGGTAATCCGTATTTGCA (site CCATTATCTTG) | 2.31 |
| ACAGTATCATGGACCGGTTTTCCCGGTAATCCGTATTTGCA (site CCTGTATCTTG) | 2.37 |
| ACAGTATCATGGACCGGTTTTCCCGGTAATCCGTATTTGCA (site CGAGTATCTTG) | 1.36 |
| ACAGTATCATGGACCGGTTTTCCCGGTAATCCGTATTTGCA (site GAAGTATCTTG) | 2.82 |
| ACAGTATCATGGACCGGTTTTCCCGGTAATCCGTATTTGCA (site GCAATATCTTG) | 1.63 |
| ACAGTATCATGGACCGGTTTTCCCGGTAATCCGTATTTGCA (site GCAGAATCTTG) | 1.47 |
| ACAGTATCATGGACCGGTTTTCCCGGTAATCCGTATTTGCA (site GCAGTAACTTG) | 0 |
| ACAGTATCATGGACCGGTTTTCCCGGTAATCCGTATTTGCA (site GCAGTATCTAG) | 0.0509 |
| ACAGTATCATGGACCGGTTTTCCCGGTAATCCGTATTTGCA (site GCAGTATCTTC) | 0.00944 |
| ACAGTATCATGGACCGGTTTTCCCGGTAATCCGTATTTGCA (site GCAGTATCTTG) | 2.41 |
| ACAGTATCATGGACCGGTTTTCCCGGTAATCCGTATTTGCA (site GCAGTCTCTTG) | 0.292 |
| ACAGTATCATGGACCGGTTTTCCCGGTAATCCGTATTTGCA (site GCCGTATCTTG) | 1.88 |
| ACAGTATCATGGACCGGTTTTCCCGGTAATCCGTATTTGCA (site TCACTATCTTG) | 0.822 |
| ACAGTATCATGGACCGGTTTTCCCGGTAATCCGTATTTGCA (site TCAGCATCTTG) | 2.37 |
| ACAGTATCATGGACCGGTTTTCCCGGTAATCCGTATTTGCA (site TCAGTAGCTTG) | 0.0987 |
| ACAGTATCATGGACCGGTTTTCCCGGTAATCCGTATTTGCA (site TCAGTATCTCG) | 0.00474 |
